According to patent US11406622B2, “Glaucocalyxin a derivative, pharmaceutically acceptable salt thereof, or pharmaceutical composition thereof and uses thereof in preparation of drugs for treating psoriasis” (SUZHOU PHARMAVAN CO., LTD., priority 2017, dated 2022):
Several values for one entry are separate records, joined by “and”; a condition that tells them apart may be missing. Equal values may be shown once.

Test system: mouse spleen lymphocytes
Assay: ConA-induced proliferation of mouse spleen lymphocytes, MTT (Example 8)
Assay type: cell-based
Conditions: 48 h, 5 μg/mL ConA
Procedure: In this example, the glaucocalyxin A derivatives and pharmaceutically acceptable salts thereof were detected for the effect thereof on ConA-induced proliferation of mouse spleen lymphocytes.
2×10^7/mL cell suspension was prepared and a 5 μg/μL ConA stock solution was added thereto at a final concentration of 5 μg/mL. The resulting mixture was inoculated into a 96-well culture plate at 0.1 mL per well. Then 0.1 mL of test compound at different concentrations was added to each well. Triplicate or quadruplicate wells were set up for each group, and a vehicle control group (without compound), a stimulant control group (with ConA, without compound, and without vehicle), a cell control group (without ConA, without compound, and without vehicle), and a blank medium control group (without cells, a well for null adjustment) were also set up, and cultured at 37° C., 5% CO2 for 48 h. MTT solution at 5 mg/mL was added at 20 μl per well, and cultured for an additional 4 hours. The culture plate was taken out and centrifuged at 1000 rpm for 10 min. The supernatant of each well was aspirated, and 100 μL of SDS cell lysis solution was added to each well, and cultured overnight. On the next day, the absorbance at 550 nm (OD550nm) was measured on an enzyme-linked immunoassay analyzer. The results were expressed as the mean OD550nm value of the triplicates or quadruplicates±standard deviation (x±sd). SPSS software version 17.0 was used for statistical analysis of the mean values, that is, the vehicle group was compared with the stimulant group, and the test group of each compound concentration was compared with the corresponding vehicle control group. The cell survival rate of each group was calculated according to the mean value for the compound treatment group and the mean value for the vehicle control group, that is, the cell survival rate (%)=the mean value for the compound treatment group/the mean value for the vehicle control group×100%. A linear regression equation was obtained by plotting the cell survival rate of each group against the concentration of the test compound, statistical test of the correlation coefficient was conducted, and then the IC50 value was determined.

With `Br.C=C1C(=O)C23C(O)CC4C(C)(C)c5nc(N(C)C)sc5CC4(C)C2CCC1C3O` (stereo not shown) [Compound 23] the “OD550nm value (x ± sd)” value (0.78125 μg/mL) was 1.14, the “Survival rate (%)” value (0.78125 μg/mL) was 98% and the “OD550nm value (x ± sd)” value (1.5625 μg/mL) was 1.18. The “Survival rate (%)” value (1.5625 μg/mL) was 101%, the “OD550nm value (x ± sd)” value (3.125 μg/mL) was 0.52 and the “Survival rate (%)” value (3.125 μg/mL) was 45%. For the same compound, the “OD550nm value (x ± sd)” value (6.25 μg/mL) was 0.29, the “Survival rate (%)” value (6.25 μg/mL) was 25% and the “OD550nm value (x ± sd)” value (12.5 μg/mL) was 0.07. The “Survival rate (%)” value (12.5 μg/mL) was 6%, the “OD550nm value (x ± sd)” value (25 μg/mL) was 0.02 and the “Survival rate (%)” value (25 μg/mL) was 2%. The “OD550nm value (x ± sd)” value (50 μg/mL) was 0.02, the “Survival rate (%)” value (50 μg/mL) was 2% and the “OD550nm value (x ± sd)” value (100 μg/mL) was 0.02. For the same compound, the “Survival rate (%)” value (100 μg/mL) was 1%, the IC50 (linear regression) was ~9.41 µM and 9.41 µM and the “IC50 (μg/mL)” value (linear regression) was “IC50 = 4.00 μg/mL”. The “effect on ConA-induced proliferation of mouse spleen lymphocytes (in words)” value (range of concentrations tested) was “significant effect”.
